{"source": "patent US20050163707A1", "about": "“Cancer treatment” (priority 2002, published 2005)", "key": {"[1]": {"system": "HT1376 bladder tumour xenografts", "test": "Tumour volume tripling time of HT1376 xenografts in nude mice after 90Y-hHMFG1 radioimmunotherapy and/or chemotherapy", "assay_type": "in vivo, mouse (human tumour xenograft)", "details": "for T-C value: Cisplatin combined with 1.2 MBq radioimmunotherapy", "protocol": "(§1) The human bladder tumour cell line, HT1376, and the human colon tumour cell line HT29 expressing polymorphic epithelial mucin (PEM) were cultured in RPMI 1640 tissue culture medium containing 100 U·ml^−1 penicillin and 100 μg·ml^−1 streptomycin, supplemented with 10% foetal calf serum in a humidified atmosphere of 5% carbon dioxide in air. HT1376 is a human bladder carcinoma cell line obtained from the European Collection of Animal Cell Cultures (ECACC no. 87032402). HT29 is human colon carcinoma cell line obtained from European Collection of Animal Cell Cultures (ECACC no. 91072201).\n(§2) The fully humanised version of the anti-PEM antibody, HMFG1, was produced by Lonza, Slough, UK. This humanised HMFG1 (hHMFG1) was conjugated with the chelating agent […] by BioInvent, Sweden.\n(§3) CITC-DTPA-conjugated hHMFG1 was radiolabelled with ^90Y in acetate buffer (pH 5.5) at room temperature for 30 minutes. Disodium EDTA was added to the reaction mixture such that the final EDTA concentration was 5 mM and left to stand at room temperature for approximately 10 min. The radiolabelled protein was then purified by size exclusion chromatography and the protein-containing fractions pooled.\n(§4) Female MF1 athymic nude (nu/nu) mice were used throughout these studies. The mice were bred at the Biological Research Facility of St. George's Hospital Medical School and were housed in sterile filter cages and maintained on irradiated diet and sterile water. Tumours were established by subcutaneous injection of 5×10^6 cells in the right flank.\n(§5) Humanised HMFG1 anti-PEM antibody (previously conjugated with the chelating agent CITC-DTPA) was radiolabelled with yttrium-90 (^90Y) to a specific activity of approximately 1-2 MBq per 10 μg. Mice received approximately 10 μg of protein by intravenous injection.\n(§6) For combination therapy, the drug and radioimmunotherapy (RIT) were given by sequential injections into the two lateral tail veins. The drug was given either 24 h before or 24 h after the RIT. In the case of Cisplatin, this was also given at the same time as the RIT. Control mice were untreated.\n(§7) Approximately three weeks after tumour inoculation, when the tumours were around 0.2 cm^3 in volume (7-8 mm in diameter), mice were divided into treatment groups of 7-8 mice each. […] Mice were injected with various doses of ^90Y-labelled hHMFG1 radioimmunotherapy (10-20 μg, 1.2-2.0 MBq) either alone or in combination with the test drug given either 24 h before or 24 h after radioimmunotherapy, or with chemotherapy or chemotherapy vehicle alone. One group of mice was left untreated as a control on some occasions when experimental animals were treated. Tumour diameters (d1, d2 and d3) were measured twice weekly in three orthogonal directions using a vernier calliper and the tumour volume (v) calculated according to the formula for an ellipsoid: [formula]\n(§8) Relative tumour volume (the volume of each tumour divided by the tumour volume on the day of treatment) was calculated to minimise the effect of variation in treatment volume of the individual tumours. The end-point was defined as time for the relative tumour volume to reach 3.\n(§9) The Wilcoxon rank sum test was used to compare the groups of mice receiving the various treatment protocols. A p-value <0.05 was considered to be significant."}, "[2]": {"system": "mouse model of breast cancer", "details": "cited from earlier work"}, "[3]": {"system": "HT29 colon tumour xenografts", "test": "Tumour volume tripling time of HT29 xenografts in nude mice after 90Y-hHMFG1 radioimmunotherapy and/or chemotherapy", "assay_type": "in vivo, mouse (human tumour xenograft)", "details": "for Median volume tripling time / T-C (treated minus control tripling time): 90Y-hHMFG1 1.4 MBq, combinations 24 h apart; for Most effective treatment schedule / Effect of drug combined with radioimmunotherapy (in words): Table 2; for Most effective treatment schedule: drug combined with 90Y-hHMFG1 radioimmunotherapy", "protocol": "as §1, §2, §3, §4, §5, §6, §7, §8, §9"}, "[4]": {"details": "Table 2, HT1376 Cisplatin, Observer 1, control 21.9, 90Y-hHMFG1 1.2 MBq, Cisplatin 10 mg/kg, drug at -24 h, 0 h or +24 h relative to RIT"}, "[5]": {"details": "Table 2, HT1376 Cisplatin, Observer 1, control 21.9, 90Y-hHMFG1 1.4 MBq, Cisplatin 2 mg/kg, combination at 0 h"}, "[6]": {"details": "Table 2, HT1376 Cisplatin, Observer 1, control 21.9, 90Y-hHMFG1 1.4 MBq, Cisplatin 10 mg/kg, combination drug -24 h"}, "[7]": {"details": "Table 1, group with Control (25-26) 19.0, each drug 10 mg/kg i.v. alone"}, "[8]": {"details": "Table 1, group with Control (18-19) 17.9, Taxotere 10 mg/kg i.v., 90Y-hHMFG1 1.2 MBq i.v., combination of both"}, "[9]": {"details": "Table 2, HT1376 Taxotere, Observer 1, control 21.9, 90Y-hHMFG1 1.2 MBq, Taxotere 10 mg/kg, combinations 24 h apart"}, "[10]": {"details": "Table 2, HT29 cyclophosphamide, Observer 1, control 10.2, cyclo 200 mg/kg"}, "[11]": {"details": "Table 2, HT29 cyclophosphamide, Observer 2, control 10.7, cyclo 200 mg/kg"}, "[12]": {"details": "drug given after the 90Y-hHMFG1 radioimmunotherapy"}, "[13]": {"details": "Table 2, HT29 gemcitabine, Observer 1, control 8.8, gemcitabine 240 mg/kg"}, "[14]": {"details": "Table 2, HT29 gemcitabine, Observer 2, control 9.5, gemcitabine 240 mg/kg"}, "[15]": {"details": "Table 2, HT29 vincristine, Observer 1, control 10.2, vincristine 2 mg/kg"}}, "data": [{"smiles": "N.N.[Cl][Pt][Cl]", "note": "[Cisplatin]", "values": [{"measurement": "Median volume tripling time", "setting": "[1]; [4]", "value": 28.8, "unit": "days"}, {"measurement": "T-C (treated minus control tripling time)", "setting": "[1]; [4]", "value": 6.9, "unit": "days"}, {"measurement": "Median volume tripling time", "setting": "[1]; [5]", "value": 28.9, "unit": "days"}, {"measurement": "T-C (treated minus control tripling time)", "setting": "[1]; [5]", "value": 7.0, "unit": "days"}, {"measurement": "Median volume tripling time", "setting": "[1]; [6]", "value": 28.8, "unit": "days"}, {"measurement": "T-C (treated minus control tripling time)", "setting": "[1]; [6]", "value": 6.9, "unit": "days"}, {"measurement": "T-C, combined addition of the drugs administered individually", "setting": "[1]; Table 2, 1.2 MBq 90Y-hHMFG1 alone plus Cisplatin 10 mg/kg alone", "value": 7.9}, {"measurement": "T-C value", "setting": "[1]; Table 2, first dosage regime (drug -24 h per Table 2)", "value": 44}, {"measurement": "T-C value", "setting": "[1]; Table 2, second dosage regime (0 h per Table 2)", "value": 36.5}, {"measurement": "T-C value", "setting": "[1]; Table 2, third dosage regime (drug +24 h per Table 2)", "value": 15.5}, {"measurement": "Most effective treatment schedule", "setting": "[1]; Table 2, drug combined with 90Y-hHMFG1 radioimmunotherapy", "value": "administer the drug 24 hours before the radioimuunotherapy"}, {"measurement": "Effect of drug combined with radioimmunotherapy (in words)", "setting": "[1]; Table 2, with 90Y-hHMFG1, no matter the order of administering", "value": "synergistic effect"}]}, {"smiles": "COc1cccc2c1C(=O)c1c(O)c3c(c(O)c1C2=O)C[C@@](O)(C(=O)CO)C[C@@H]3O[C@H]1C[C@H](N)[C@H](O)[C@H](C)O1", "note": "[Dox]", "values": [{"measurement": "T-C (treated minus control tripling time)", "setting": "[1]; [7]", "value": 33.9, "unit": "days"}, {"measurement": "Median volume tripling time", "setting": "[1]; in vivo", "value": 52.9, "unit": "days"}]}, {"smiles": "CC(=O)O[C@H]1C(=O)[C@@]2(C)[C@H]([C@H](OC(=O)c3ccccc3)[C@]3(O)C[C@H](OC(=O)[C@H](O)[C@@H](NC(=O)c4ccccc4)c4ccccc4)C(C)=C1C3(C)C)[C@]1(OC(C)=O)CO[C@@H]1C[C@@H]2O", "note": "[Taxol ®, paclitaxel]", "values": [{"measurement": "Median volume tripling time", "setting": "[1]; [7]", "value": 30.2, "unit": "days"}, {"measurement": "T-C (treated minus control tripling time)", "setting": "[1]; [7]", "value": 11.2, "unit": "days"}, {"measurement": "Optimum time for Taxol administration after 90Y-ChL6", "setting": "[2]", "value": "6 to 24", "unit": "h"}]}, {"smiles": "CC(=O)O[C@@]12CO[C@@H]1C[C@H](O)[C@@]1(C)C(=O)[C@H](O)C3=C(C)[C@@H](OC(=O)[C@H](O)[C@@H](NC(=O)OC(C)(C)C)c4ccccc4)C[C@@](O)([C@@H](OC(=O)c4ccccc4)[C@H]21)C3(C)C", "note": "[Taxotere ®, Docetaxel]", "values": [{"measurement": "Median volume tripling time", "setting": "[1]; [8]", "value": 43.8, "unit": "days"}, {"measurement": "T-C (treated minus control tripling time)", "setting": "[1]; [8]", "value": 25.9, "unit": "days"}, {"measurement": "Median volume tripling time", "setting": "[1]; [7]", "value": 41.2, "unit": "days"}, {"measurement": "T-C (treated minus control tripling time)", "setting": "[1]; [7]", "value": 22.2, "unit": "days"}, {"measurement": "Median volume tripling time", "setting": "[1]; [9]", "value": 43.5, "unit": "days"}, {"measurement": "T-C (treated minus control tripling time)", "setting": "[1]; [9]", "value": 21.6, "unit": "days"}]}, {"smiles": "O=P1(N(CCCl)CCCl)NCCCO1", "note": "(stereo not shown) [cyclo, Cyclophosphamide]", "values": [{"measurement": "Median volume tripling time", "setting": "[3]; [10]", "value": 15.5, "unit": "days"}, {"measurement": "T-C (treated minus control tripling time)", "setting": "[3]; [10]", "value": 5.3, "unit": "days"}, {"measurement": "Median volume tripling time", "setting": "[3]; [11]", "value": 14.1, "unit": "days"}, {"measurement": "T-C (treated minus control tripling time)", "setting": "[3]; [11]", "value": 3.4, "unit": "days"}, {"measurement": "Most effective treatment schedule", "setting": "[3]", "value": "most effective when given after the radioimmunotherapy"}, {"measurement": "Effect of drug combined with radioimmunotherapy (in words)", "setting": "[3]; [12]", "value": "synergistic effect over the mere additive effect"}]}, {"smiles": "Nc1ccn([C@@H]2O[C@H](CO)[C@@H](O)C2(F)F)c(=O)n1", "note": "[gemcitabine, Gemcitabine]", "values": [{"measurement": "Median volume tripling time", "setting": "[3]; [13]", "value": 15.4, "unit": "days"}, {"measurement": "T-C (treated minus control tripling time)", "setting": "[3]; [13]", "value": 6.6, "unit": "days"}, {"measurement": "Median volume tripling time", "setting": "[3]; [14]", "value": 12.8, "unit": "days"}, {"measurement": "T-C (treated minus control tripling time)", "setting": "[3]; [14]", "value": 3.3, "unit": "days"}, {"measurement": "Effect of drug combined with radioimmunotherapy (in words)", "setting": "[3]; drug and 90Y-hHMFG1 radioimmunotherapy given in combination", "value": "overall increase in T-C values"}]}, {"smiles": "CC[C@]1(O)C[C@H]2CN(CCc3c([nH]c4ccccc34)[C@@](C(=O)OC)(c3cc4c(cc3OC)N(C=O)[C@H]3[C@@](O)(C(=O)OC)[C@H](OC(C)=O)[C@]5(CC)C=CCN6CC[C@]43[C@@H]65)C2)C1", "note": "[vincristine, Vincristine]", "values": [{"measurement": "Median volume tripling time", "setting": "[3]; [15]", "value": 13.4, "unit": "days"}, {"measurement": "T-C (treated minus control tripling time)", "setting": "[3]; [15]", "value": 3.2, "unit": "days"}, {"measurement": "T-C (treated minus control tripling time)", "setting": "[3]; Table 2, HT29 vincristine, Observer 2, control 10.7, vincristine 2 mg/kg", "value": 4.0, "unit": "days"}, {"measurement": "Effect of drug combined with radioimmunotherapy (in words)", "setting": "[3]; drug administered before the 90Y-hHMFG1 radioimmunotherapy", "value": "also effective when administered before the radioimmunotherapy although to a slightly lesser extent"}, {"measurement": "Most effective treatment schedule", "setting": "[3]", "value": "most effective when given after the radioimmunotherapy"}, {"measurement": "Effect of drug combined with radioimmunotherapy (in words)", "setting": "[3]; [12]", "value": "synergistic effect over the mere additive effect"}]}]}
